Data from US11607432B2, “Probiotic compositions containing clostridiales for inhibiting inflammation” (Evelo Biosciences, Inc., priority 2014, dated 2023).
“Also recorded” adds a separate entry of the source. Like-named read-outs stand apart in the source and are kept apart here.

Experiments:
[1] = system: human peripheral blood mononuclear cells (PBMCs); assay: Cytokine release by human PBMCs incubated with commensal bacteria alone or in combination with E. faecalis (Luminex); assay type: cell-based; details: for ability to reduce/counteract the induction of pro-inflammatory cytokines by EPV 8 (incl. IL-6, MCP-1, IL-12p70, IFNγ): combination with EPV 8; for anti-inflammatory cytokine profile for a Th-1-driven condition such as GVHD: overall assessment, FIG. 11
human PBMCs = assay: Flow cytometry of T cell populations in human PBMCs cultured with commensal bacteria; assay type: cell-based; details: compared to PBMCs alone (control); percent of CD3ε+CD4+ cells
Procedure: In order to determine whether exposure to commensal bacteria may polarize T cells toward a particular phenotype, flow cytometry analysis was performed on human PBMCs cultured with various commensal bacteria as described above. The cells recovered from culture were washed in phosphate-buffered saline and stained with a cocktail of fluorescently labeled antibodies against specific cell surface protein markers to allow for the detection of Th1 cells (CXCR3^+CCR6^−), Th2 cells (CXCR3^−CCR6^−), Th17 cells (CXCR3^+CCR6^+) and Tregs (CD25^+CD127^lo). Negative control wells contained PBMCs in culture medium alone and positive control wells contained PBMCs+LPS (100 ng/ml) as a known immune stimulus. The commensal bacteria examined inluded: Epv 1: R. gnavus; Epv 3: B. luti; Epv 2: E. rectale; Epv 5: B. wexlerae; Epv. 8: E. faecalis; Epv 20: B. obeum, ATCC 29174; Epv 21: B. product, ATCC 27340; Epv 24: B. hansenii, ATCC 27752. […] For example, the optimal T cell profile to address pro-inflammatory disorders such as GVHD would consist of ↑Treg, ↓Th17, ↓ or unchanged Th1, and ↑Th2. This phenotype was induced by many of the bacteria tested.

[2] = cited from earlier work
[3] = in vivo; cited from earlier work
microbiome of the gut = system: microbiome of the gut; set-up: species or system C57Bl/6 female mice; details: mouse, in vivo
Source text: (§1) The trillions of organisms forming the microbiome function as an organ system interconnected throughout the body. The possibility that modification of the microbiome in a given physical location may influence the microbiome at other sites in the body (distal augmentation) was investigated. Seven week old C57Bl/6 female mice were acclimatized for 7 days prior to the start of the study by daily handling and shuffling between cages. All mice were housed at three mice per cage in individually vented cages (Thoren, Hazleton, Pa.). At day 0, baseline fresh fecal pellets, and vaginal lavages with 100 μL of sterile double-distilled water were collected and immediately frozen at −80° C. for microbiome analysis. […] Water alone is not expected to influence the microbiome and acted as a negative control. […] The impact of oral vancomycin is therefore expected to be limited to the gastrointestinal tract such that microbiome changes elsewhere in the body (e.g. vagina) would be attributable to distal augmentation. […]
(§2) Isolation and sequencing of microbial DNA from the stool and vaginal samples was performed by DNA Genotek (Ottawa, ON, Canada). The V3-V4 region of the 16S ribosomal subunit was amplified with custom PCR primers and sequenced on an Illumina MiSeq to a minimum acceptable read depth of 25,000 sequences per sample. […]

vaginal microbiome = system: vaginal microbiome; set-up: species or system C57Bl/6 female mice; details: mouse, in vivo, po
Source text: as §1, §2

intestinal permeability = assay type: in vivo, mice
[4] = Normal human volunteer study of D-xylose: serum CRP, serum cytokines and T-cell markers; assay type: in vivo
Source text: Blood was collected at pre-specified pre- and post-ingestion time points to evaluate C-reactive protein (CRP), serum cytokines (tumor necrosis factor alpha [TNF-α], interleukin [IL]-2, IL-6, interferon gamma [IFN-γ], and IL-10), and T-cell markers CD3, CD4, CD8, CD25, and FOXP3. Plasma was also stored and may be tested for biomarkers and/or metabolic markers for up to 7 years.
Summary statistics (n, mean, standard deviation, median, minimum, and maximum) were presented for serum concentrations of CRP, flow cytometry T-cell markers (CD3, CD4, CD8, CD25, and FOXP3), and cytokines (TNF-α, IL-2, IL-6, IFN-γ, and IL-10) as per their nominal time points.

gut microbiome = assay: Normal human volunteer study of D-xylose: changes in the gut microbiome (stool 16S sequencing); assay type: in vivo; details: for alpha diversity of the gut microbiome: over time on study
[5] = human, in vivo
Procedure: D-xylose is a carbon source generally preferred by anaerobic bacteria. […] A parallel, double-blind, 5 cohort escalation food safety study was conducted to examine D-xylose in normal human volunteers. The study was a double-blind, single-center, parallel group study designed to evaluate the tolerability and potential microbiome changes induced by ingestion of D-xylose at 5 different amounts in healthy, adult volunteers enrolled at 1 study center in the United States (US).
Subjects were screened for eligibility within 21 days prior to the first planned ingestion of study sweetener on Day 1 (Baseline). […]
Subjects returned to the study center weekly on Days 8, 15, 22, and 28 for ingestion, tolerability, and compliance evaluations. Safety was evaluated on a continual basis through adverse events (AE) monitoring, clinical laboratory measurements, vital sign monitoring, physical examinations, electrocardiograms (ECGs), telephone follow-up, and electronic subject ingestion diaries. Stool was collected pre-ingestion and at pre-specified time points, and post-ingestion samples were evaluated for changes in the gut microbiome compared with Baseline for all subjects. […]
Safety was evaluated on a continual basis through AE monitoring, clinical laboratory measurements, vital sign monitoring, physical examinations, ECGs, telephone follow-up, and electronic subject ingestion diaries. […]

[6] = bacterium alone, 24, 48 and 72 hours
[7] = Table 1, NIAID priority pathogen category, OP or N

## Blautia luti [EPV 3]
[1]; bacterium alone
  intrinsic inflammatory activity (induction of pro-inflammatory cytokines) compared to EPV 8: relatively low intrinsic inflammatory activity
[1]; [6]
  induction of Th1-related cytokines (IFN-γ, IL-12p70, IL-6, IL-2, TNFα): minimal induction
  induction of monocyte, macrophage and neutrophil-related inflammatory cytokines (MCP-1, MIP1β, MIP1α, RANTES, IL-1α, IL1β, IFN-α2, IL-8): least inflammatory
[1]; combination with E. faecalis
  countering the effect of E. faecalis (Epv 8) on monocyte, macrophage and neutrophil-related inflammatory cytokines: most effective
[1]; combination with E. faecalis, 24, 48 and 72 hours
  counteracting induction of Th1-related cytokines by E. faecalis (Epv 8): most effective
[1]
  ability to reduce/counteract the induction of pro-inflammatory cytokines by EPV 8 (incl. IL-6, MCP-1, IL-12p70, IFNγ): able to reduce the induction of pro-inflammatory cytokines
  anti-inflammatory cytokine profile for a Th-1-driven condition such as GVHD: significantly desirable anti-inflammatory profile; also recorded: desirable anti-inflammatory cytokine profile

## Eubacterium rectale [EPV 35]
[1]
  low induction of pro-inflammatory cytokines and/or positive induction of anti-inflammatory cytokines, and ability to counteract the inflammatory activity of E. faecalis (candidate criteria): meeting these criteria

## Blautia Hansenii ATCC27752 [EPV 24]
Human PBMCs
  proportion of T cells with a regulatory phenotype (Tregs, CD25+CD127lo): greatest impact

## Enterococcus faecalis [EPV 8, reference compound]
[1]
  induction of Th1-related cytokines (IFN-γ, IL-12p70, IL-6, IL-2, TNFα): induced high levels
[2]; OTU of Table 1
  Pathogen Status: N
Human PBMCs
  proportion of T cells with a regulatory phenotype (Tregs, CD25+CD127lo): little or no increase

## Clostridium sordellii
[2]; [7]
  Pathogen Status: N

## Bacteroides fragilis
[2]; Table 1, OTU list, NIAID priority pathogen category, OP or N
  Pathogen Status: N

## CN[C@H](CC(C)C)C(=O)N[C@H]1C(=O)N[C@@H](CC(N)=O)C(=O)N[C@H]2C(=O)N[C@H]3C(=O)N[C@H](C(=O)N[C@H](C(=O)O)c4cc(O)cc(O)c4-c4cc3ccc4O)[C@H](O)c3ccc(c(Cl)c3)Oc3cc2cc(c3O[C@@H]2O[C@H](CO)[C@@H](O)[C@H](O)[C@H]2O[C@H]2C[C@](C)(N)[C@H](O)[C@H](C)O2)Oc2ccc(cc2Cl)[C@H]1O [Vancomycin, vancomycin]
[3]
  absorption from the gut after oral administration: poorly absorbed from the gut
Microbiome of the gut
  impact on the microbiome of the gut (PCA at the family level, fecal samples day 0 to day 6): strong impact
Vaginal microbiome
  day 0 to day 6 pattern in vaginal samples (PCA): overall difference between the PBS and oral vancomycin groups

## Clostridium paraputrificum
[2]; [7]
  Pathogen Status: N

## Blautia wexlerae [EPV 5]
[1]; 24, 48 and 72 hours
  induction of IL-10: most potent
[1]
  ability to reduce/counteract the induction of pro-inflammatory cytokines by EPV 8 (incl. IL-6, MCP-1, IL-12p70, IFNγ): little ability to counteract
  anti-inflammatory cytokine profile for a Th-1-driven condition such as GVHD: suboptimal anti-inflammatory profile

## Blautia obeum [EPV 78]
[1]
  low induction of pro-inflammatory cytokines and/or positive induction of anti-inflammatory cytokines, and ability to counteract the inflammatory activity of E. faecalis (candidate criteria): meeting these criteria

## Clostridium glycolicum
[2]; [7]
  Pathogen Status: N

## Clostridium tertium
[2]; [7]
  Pathogen Status: N

## Ruminococcus gnavus [EPV 1]
[1]; bacterium on its own, 24, 48 and 72 hours
  eliciting Th2 cytokines (IL-13, IL-4, IL-5): most active
[1]; in the presence of E. faecalis, 24, 48 and 72 hours
  eliciting Th2 cytokines (IL-13, IL-4, IL-5): most active

## Eubacterium rectale [EPV 2]
[1]; [6]
  induction of monocyte, macrophage and neutrophil-related inflammatory cytokines (MCP-1, MIP1β, MIP1α, RANTES, IL-1α, IL1β, IFN-α2, IL-8): least inflammatory
[1]; combination with E. faecalis
  countering the effect of E. faecalis (Epv 8) on monocyte, macrophage and neutrophil-related inflammatory cytokines: most effective

## Blautia luti (BlnIX) [EPV 114]
[1]
  low induction of pro-inflammatory cytokines and/or positive induction of anti-inflammatory cytokines, and ability to counteract the inflammatory activity of E. faecalis (candidate criteria): meeting these criteria

## Blautia producta ATCC 27340 [EPV 21]
Human PBMCs
  proportion of T cells with a regulatory phenotype (Tregs, CD25+CD127lo): greatest impact

## CCN1CCN(c2cc3c(cc2F)c(=O)c(C(=O)O)cn3C2CC2)CC1 [enro, enrofloxacin, reference compound]
Intestinal permeability; 0.25 g/L in drinking water day −7 to day −2, measured 2 days after a 5 day course (day 0)
  serum endotoxin levels after antibiotic treatment: increase in serum endotoxin levels
Intestinal permeability; by day 14
  serum endotoxin levels over time after antibiotic treatment: return to baseline by day 14

## O=C[C@H](O)[C@@H](O)[C@H](O)CO [D-xylose]
[4]; 2 g and 15 g D-xylose cohorts, FIG. 30
  levels of serum interferon gamma over time: trend for reduced levels
[4]; any ingestion amount
  total T-cells or any T-cell subsets over time: No consistent or clinically meaningful changes over time
[4]; human, in vivo
  subjects with normal serum CRP at Baseline with at least 1 post-ingestion CRP value >2.9 mg/L: 8.3%
[4]; most data points below the limit of quantitation, any ingestion amount
  serum cytokines (TNF-α, IL-2, IL-6, IFN-γ, IL-10) over time: did not indicate any consistent or clinically meaningful changes over time
Intestinal permeability; mouse, in vivo
  basal levels of serum endotoxin: reduced these basal levels over time; also recorded: reduces basal levels of serum endotoxin
  effect of xylose on the increase in serum endotoxin level caused by cipro: appeared to counteract the increase in serum endotoxin level; also recorded: counteracts the endotoxin increase
  effect of xylose on the increase in serum endotoxin level caused by enro: but not enro
Gut microbiome; normal individuals and normal mice
  changes in the gut microbiome, overall: subtle changes in the gut microbiome
Gut microbiome; regardless of ingestion amount
  community composition of the gut microbiome over time: no significant changes in community composition
  alpha diversity of the gut microbiome: no apparent significant impact
Gut microbiome; regardless of ingestion amount, listed as xylose
  alpha diversity of the gut microbiome: no major shifts in the microbiome alpha diversity
Gut microbiome; xylose TID at 1, 2, 8, 12.5 or 15 grams, FIG. 31
  Chao diversity index (community richness) over time: overall decrease
[5]
  SAEs, severe AEs, subject deaths: No SAEs, severe AEs, or subject deaths were reported
